Here are results for five compounds from EP4796125A1, “TREATMENT OF PATIENT WITH NEGATIVE P53 GENE MUTATION, POSITIVE KRAS GENE MUTATION AND POSITIVE BRCA MUTATION” (Ascentawits Pharmaceuticals, Ltd., priority 2023, dated 2025).

The test system of one assay is NCI-H460 P53KO #1 cells. The assay can be described thus: In vitro proliferation under normoxia conditions (CTG, 72 hours), Example 29. The format is cell-based, human. To be noted: Table 25. As for the experimental part: (§1) • 1) NCI-H460 and NCI-H460 P53KO # 1 cell suspensions were added to 96-well plate (100 µL per well), with a cell density of 2000 cells/well. • 2) The cells were cultured overnight in a 37°C, 5% CO2 incubator. • 3) Compound Treatment
(§2) Monotherapy: 24 hours after cell plating, each well was supplemented with 99.5 µL of growth medium. Then, 0.5 µL of test compounds at different concentrations was added. The plate was gently shaken to ensure even mixing, and then placed in a 37°C, 5% CO2 incubator.
(§3) Combination therapy: 24 hours after cell plating, each well was supplemented with 99 µL of growth medium. Then, 0.5 µL of the combination compound was added. The plate was gently shaken to ensure even mixing, and then placed in an incubator for 2 hours. Then, 0.5µL of test compounds at different concentrations was added. The plate was gently shaken to ensure even mixing, and then placed in a 37°C, 5% CO2 incubator. • 4) The cell plate was placed in the incubator for 72 hours. • 5) The cell plate to be tested was placed at room temperature and equilibrated for 30 minutes, and 100 µL of medium was discarded from each well. • 6) 25 µL of CTG reagent was added to each well, placed at a fast shaker to shake for 2 minutes, and placed at room temperature for 30 minutes (protected from light). • 7) The chemiluminescence signal value was read using a multifunctional microplate reader with a reading time of 1000 ms. • 8) IC50 (half maximal inhibitory concentration) values were calculated using GraphPad Prism 5 software.

The next assay relates to NCI-H460 cells. The description is as above. The format is cell-based. As for the experimental part: as §1, §2, §3
The test system of assay [1] is RAD51 protein in H460 cells. The assay is described as follows: WB detection of RAD51 protein (level, degradation with MG-132, half-life with Cycloheximide). Format: cell-based. As to conditions: 0.1 nM AST-3424, 5 µM Nutlin-3, then 5 µM MG-132 for 6 hours (Figure 21). The procedure: In the first experiment, the second experiment and the third experiment about the effect of the combination of AST-3424 and Nutlin-3 on Ser15-p53, Ser20-p53, Total p53, MDM2, and p21 proteins in H460 cells in Example 21, the applicant also performed WB detection of RAD51 protein.
• 1) H460 cell suspension was added to a 24-well plate, with a cell density of 100000 cells/well and 995 µL of medium per well. • 2) The cells were cultured overnight in a 37°C, 5% CO2 incubator. • 3) Compound Treatment
Monotherapy: 24 hours after cell plating, 5 µL of test compounds at different concentrations was added: 1% DMSO, 0.1 nM AST-3424, and 5 µM Nutlin-3. The plate was gently shaken to ensure even mixing, and then placed in a 37°C, 5% CO2 incubator. After culturing for another 24 hours, the cells were collected.
Combination therapy: 24 hours after cell plating, • Adding 0.1 nM AST-3424 for pre-treatment for 2 hours, and then adding 5 µM Nutlin-3 for co-treatment for 22 hours; • Adding 1% DMSO and 5 µM MG-132 for co-treatment for 24 hours; • Adding 0.1 nM AST-3424 and 5 µM MG-132 for co-treatment for 24 hours; • Adding 5 µM Nutlin-3 and 5 µM MG-132 for co-treatment for 24 hours; • Adding 0.1 nM AST-3424 for pre-treatment for 2 hours, and then adding 5 µM Nutlin-3 for treatment for 16 hours, and then adding 5 µM MG-132 for co-treatment for 6 hours. […]

For another assay, the system named is HPAF-II cells. The assay can be described thus: In vitro proliferation inhibition experiment (CTG, 72 hours), Example 20. The format is cell-based, human. To be noted: Homo sapiens, Table 15, HPAF-II, read-out: Inhibition rate/%. The procedure: (§4) • 1) H460 and HPAF-II cell suspensions were added to a 96-well plate (100 µL per well), with cell densities of 2000 cells/well and 20000 cells/well, respectively. • 2) The cells were cultured overnight in a 37°C, 5% CO2 incubator. • 3) Compound Treatment
(§5) Combination therapy: 24 hours after cell plating, each well was supplemented with 99 µL of growth medium. Then, 0.5 µL of Nutlin-3 or RITA was added to each well. The plate was gently shaken to ensure even mixing, and then placed in an incubator for 2 hours. Then, 0.5 µL of test compounds at different concentrations was added. The plate was gently shaken to ensure even mixing, and then placed in a 37°C, 5% CO2 incubator.
(§6) Monotherapy: 24 hours after cell plating, each well was supplemented with 99.5 µL of growth medium. Then, 0.5 µL of test compounds at different concentrations was added. The plate was gently shaken to ensure even mixing, and then placed in a 37°C, 5% CO2 incubator. • 4) The cell plate was placed in the incubator for 72 hours. • 5) The cell plate to be tested was placed at room temperature and equilibrated for 30 minutes, and 100 µL of medium was discarded from each well. • 6) 25 µL of CTG reagent was added to each well, placed on a fast shaker to shake for 2 minutes, and placed at room temperature for 30 minutes (protected from light). • 7) The chemiluminescence signal value was read using a multifunctional microplate reader with a reading time of 1000 ms, and the corresponding inhibition rate data were calculated.

The test system of a further assay is H460 cells. The assay is described as above. Format: cell-based. To be noted: Homo sapiens, NCI-H460, read-out: Inhibition rate result / %. As for the experimental part:
as §4, §5, §6

The test system of assay [2] is NRF2 and AKR1C3 in HPAF II cells. To be noted: 0.875, 1.75, 3.5, 7 µM SFN, overnight, with increasing concentration. As for the experimental part: A solution of SFN compound (Sulforaphane, NRF2 activator) was added to HPAF II cell suspension. The mixture was cultured overnight in a 37°C, 5% CO2 incubator. The cell protein lysate was collected for Western Blotting (WB) detection. The experiment consisted of five groups: 0.5% DMSO, 0.875 µM SFN, 1.75 µM SFN, 3.5 µM SFN, and 7 µM SFN. HPAF II cells were treated with different concentrations of the NRF2 activator SFN, and then subjected to Western Blotting to detect the expressions of NRF2 and AKR1C3.

Assay [3] deals with cell lines and mouse tumor models of BRCA pathogenic mutations. As to conditions: in vitro and in vivo pharmacodynamic experiments; data of WO2023174319A; cited from earlier work.

Structures are written as SMILES. Peptide text beside a SMILES is read from it. * marks the point of attachment. Cbz = O=C(OCc1ccccc1)*

By IC50 is commonly meant the concentration at which inhibition is half-maximal. Take `CN(C)C(=O)c1cccc(Oc2cc3c(cc2[N+](=O)[O-])OCCC3OP(=O)(N2CC2)N2CC2)c1` (stereo not shown) [Compound C]: the IC50 in the assay with NCI-H460 P53KO #1 cells (Homo sapiens, NCI-H460 P53KO # 1, normoxia, alone or + 3 µM AST-3021) was 36.1 nM; with NCI-H460 cells (Homo sapiens, Table 25, normoxia, alone or + 3 µM AST-3021), 2.05 nM. Also, the “Ratio, knockout / wild-type” value in the assay with NCI-H460 P53KO #1 cells (IC50 in NCI-H460 P53KO # 1 / NCI-H460) is reported as 17.60. Further, the “Ratio, Compound C/AST-3424” value with NCI-H460 P53KO #1 cells (NCI-H460 P53KO # 1, IC50 ratio) worked out at 6.62; in the assay on NCI-H460 cells (Table 25, IC50 ratio), 4.77.

With `CC(C)C[C@@H](C=O)NC(=O)[C@H](CC(C)C)NC(=O)[C@H](CC(C)C)NC(=O)OCc1ccccc1` [MG-132] (Cbz-Leu-Leu-Leu-aldehyde), the “RAD51 protein level after addition of MG-132” value in assay [1] is given as “reverses the downregulation of RAD51 protein”.

Consider `OCc1ccc(-c2ccc(-c3ccc(CO)s3)o2)s1` [RITA], for which the inhibition at 2.5 µM with HPAF-II cells (group 1: AST 60 nM, RITA 2.5 µM, AST + RITA 60+ 2.5) came out at 2.86%. For the same compound, the inhibition at 5 µM in the assay on HPAF-II cells (group 2: AST 60 nM, RITA 5 µM, AST + RITA 60+ 5) turned out to be 5.56%. The inhibition at 0.025 µM in the assay on H460 cells (Table 13, H460, group 1: AST 0.5 nM, RITA 0.025 µM, AST + RITA 0.5+0.025) was determined as 22.3%. The inhibition at 0.05 µM in the assay with H460 cells (Table 13, H460, group 2: AST 0.5 nM, RITA 0.05 µM, AST + RITA 0.5+0.05) came out at 22.4%.

As to `C[S+]([O-])CCCCN=C=S` (stereo not shown) [SFN, Sulforaphane], in assay [2], the “expression of AKR1C3” value is listed as “also increases simultaneously” and the “expression of NRF2” value is “increases significantly”.

For the compound `Cn1c(COP(=O)(NCCBr)NCCBr)cnc1[N+](=O)[O-]` [TH-302], the “sensitivity of cell lines and mouse tumor models of BRCA pathogenic mutations” value in assay [3] was “more sensitive”.
